The record followed here is ChEMBL document CHEMBL5634099, “Pyrrole-thiazolidinone hybrids as a new structural class of broad-spectrum anti-infectives” (Eur J Med Chem, 2023).

≈ marks a conversion by molar mass, not a printed value. Where only a bound is given, the exact number is not on record here.

Assay type in all cases: functional
For test [1], the system named is Staphylococcus aureus. The test can be described thus: Antibacterial activity against Staphylococcus aureus ATCC 29213 assessed as bacterial growth inhibition incubated for 16 to 18 hrs by CLSI based susceptibility testing method. The note with it: time 16-18 hrs.
The test system of a further test is Klebsiella pneumoniae. The test can be described thus: Antibacterial activity against Klebsiella pneumoniae BAA 1705 assessed as bacterial growth inhibition incubated for 16 to 18 hrs by CLSI based susceptibility testing method. The note with it: time 16-18 hrs.
Test [2] deals with Staphylococcus aureus. The test is described as follows: Antibacterial activity against methicillin-sensitive Staphylococcus aureus ATCC 29213 clinical isolate assessed as bacterial growth inhibition incubated for 16 to 18 hrs by CLSI based susceptibility testing method. The note with it: time 16-18 hrs.
Test [3] has as its system Staphylococcus aureus. The test can be described thus: Antibacterial activity against methicillin-resistant Staphylococcus aureus NR 100 clinical isolate assessed as bacterial growth inhibition incubated for 16 to 18 hrs by CLSI based susceptibility testing method. The note with it: time 16-18 hrs.
In test [4] the test system is Staphylococcus aureus. The test can be described thus: Antibacterial activity against methicillin-resistant Staphylococcus aureus NR 119 clinical isolate assessed as bacterial growth inhibition incubated for 16 to 18 hrs by CLSI based susceptibility testing method. To be noted: time 16-18 hrs.
Test [5] has as its system Staphylococcus aureus. The test is described as follows: Antibacterial activity against methicillin-resistant Staphylococcus aureus NR 129 clinical isolate assessed as bacterial growth inhibition incubated for 16 to 18 hrs by CLSI based susceptibility testing method. To be noted: time 16-18 hrs.
Test [6] relates to Staphylococcus aureus. The test can be described thus: Antibacterial activity against methicillin-resistant Staphylococcus aureus NR 186 clinical isolate assessed as bacterial growth inhibition incubated for 16 to 18 hrs by CLSI based susceptibility testing method. To be noted: time 16-18 hrs.
Test [7] deals with Staphylococcus aureus. The test can be described thus: Antibacterial activity against methicillin-resistant Staphylococcus aureus NR 191 clinical isolate assessed as bacterial growth inhibition incubated for 16 to 18 hrs by CLSI based susceptibility testing method. To be noted: time 16-18 hrs.
For test [8], the system named is Staphylococcus aureus. The test is described as follows: Antibacterial activity against methicillin-resistant Staphylococcus aureus NR 192 clinical isolate assessed as bacterial growth inhibition incubated for 16 to 18 hrs by CLSI based susceptibility testing method. To be noted: time 16-18 hrs.
Test [9] deals with Staphylococcus aureus. The test can be described thus: Antibacterial activity against methicillin-resistant Staphylococcus aureus NR 193 clinical isolate assessed as bacterial growth inhibition incubated for 16 to 18 hrs by CLSI based susceptibility testing method. To be noted: time 16-18 hrs.
The test system of test [10] is Staphylococcus aureus. The test can be described thus: Antibacterial activity against methicillin-resistant Staphylococcus aureus NR 194 clinical isolate assessed as bacterial growth inhibition incubated for 16 to 18 hrs by CLSI based susceptibility testing method. To be noted: time 16-18 hrs.
The subject of test [11] is Staphylococcus aureus. The test can be described thus: Antibacterial activity against methicillin-resistant Staphylococcus aureus NR 198 clinical isolate assessed as bacterial growth inhibition incubated for 16 to 18 hrs by CLSI based susceptibility testing method. The note with it: time 16-18 hrs.
In test [12] the test system is Staphylococcus aureus. The test is described as follows: Antibacterial activity against vancomycin-resistant Staphylococcus aureus VRS 1 clinical isolate assessed as bacterial growth inhibition incubated for 16 to 18 hrs by CLSI based susceptibility testing method. To be noted: time 16-18 hrs.
For test [13], the system named is Staphylococcus aureus. The test can be described thus: Antibacterial activity against vancomycin-resistant Staphylococcus aureus VRS 4 clinical isolate assessed as bacterial growth inhibition incubated for 16 to 18 hrs by CLSI based susceptibility testing method. The note with it: time 16-18 hrs.
Test [14] has as its system Staphylococcus aureus. The test can be described thus: Antibacterial activity against vancomycin-resistant Staphylococcus aureus VRS 12 clinical isolate assessed as bacterial growth inhibition incubated for 16 to 18 hrs by CLSI based susceptibility testing method. To be noted: time 16-18 hrs.
Test [15] relates to Staphylococcus aureus. The test can be described thus: Antibiofilm activity against Staphylococcus aureus ATCC 29213 assessed as reduction in biofilm formation at 10 times MIC incubated for 24 hrs by absorbance based assay relative to control. The arrangement: scale not given: the % may be the effect or the level left.
A further test concerns Escherichia coli. The test is described as follows: Antibacterial activity against Escherichia coli ATCC 25922 assessed as bacterial growth inhibition incubated for 16 to 18 hrs by CLSI based susceptibility testing method. The note with it: time 16-18 hrs.
The next test deals with Acinetobacter baumannii. The test can be described thus: Antibacterial activity against Acinetobacter baumannii BAA 1605 assessed as bacterial growth inhibition incubated for 16 to 18 hrs by CLSI based susceptibility testing method. To be noted: time 16-18 hrs.
Another test relates to Pseudomonas aeruginosa. The test is described as follows: Antibacterial activity against Pseudomonas aeruginosa ATCC 27853 assessed as bacterial growth inhibition incubated for 16 to 18 hrs by CLSI based susceptibility testing method. The note with it: time 16-18 hrs.
For test [16], the system named is Mycobacterium tuberculosis. The test can be described thus: Antimycobacterial activity against Mycobacterium tuberculosis H37Rv ATCC 27294 assessed as bacterial growth inhibition incubated for 7 days by resazurin dye based assay. To be noted: H37Rv ATCC 27294, 168 h, time 7 day.
Test [17] relates to Mycobacteroides abscessus. The test is described as follows: Antimycobacterial activity against Mycobacterium abscessus ATCC 19977 assessed as bacterial growth inhibition incubated for 7 days by resazurin dye based assay. The note with it: ATCC 19977, 168 h, time 7 day.
The subject of test [18] is Mycolicibacterium fortuitum. The test is described as follows: Antimycobacterial activity against Mycobacterium fortuitum ATCC 6841 assessed as bacterial growth inhibition incubated for 7 days by resazurin dye based assay. To be noted: ATCC 6841, 168 h, time 7 day.
For another test, the system named is Mycobacteroides chelonae. The test is described as follows: Antimycobacterial activity against Mycobacteroides chelonae ATCC 35752 assessed as bacterial growth inhibition incubated for 7 days by resazurin dye based assay. To be noted: ATCC 35752, 168 h, time 7 day.

On to `C[C@H]1COc2c(N3CCN(C)CC3)c(F)cc3c(=O)c(C(=O)O)cn1c23` [LEVOFLOXACIN ANHYDROUS], for which the MIC in the test with Staphylococcus aureus [1] came to 0.25 µg/mL (≈ 0.692 µM); in the test with Klebsiella pneumoniae, 64 µg/mL (≈ 177 µM); in the test with Staphylococcus aureus [2], 0.25 µg/mL (≈ 0.692 µM); in the test on Staphylococcus aureus [3], 0.25 µg/mL (≈ 0.692 µM); in the test on Staphylococcus aureus [4], 16 µg/mL (≈ 44.3 µM); in the test with Staphylococcus aureus [5], 0.25 µg/mL (≈ 0.692 µM). The MIC with Staphylococcus aureus [6] was 4 µg/mL (≈ 11.1 µM); with Staphylococcus aureus [7], 16 µg/mL (≈ 44.3 µM); with Staphylococcus aureus [8] it was 8 µg/mL (≈ 22.1 µM); with Staphylococcus aureus [9], 32 µg/mL (≈ 88.6 µM); in the test with Staphylococcus aureus [10] it was 0.125 µg/mL (≈ 0.346 µM); in the test on Staphylococcus aureus [11], 32 µg/mL (≈ 88.6 µM). Also, the values for the MIC with Staphylococcus aureus [12], in the test with Staphylococcus aureus [13] and in the test on Staphylococcus aureus [14] were 32 µg/mL (≈ 88.6 µM), over 64 µg/mL and 32 µg/mL (≈ 88.6 µM), respectively. The Activity with Staphylococcus aureus [15] is given as 10%.
Regarding `Cc1nc(/N=C2\NC(=O)/C(=C/c3cc(C)n(-c4ccc(N5CCOCC5)cc4)c3C)S2)sc1C`, the minimal inhibitory concentration (MIC) in the test on Escherichia coli is over 64 µg/mL; with Staphylococcus aureus [1], 64 µg/mL (≈ 130 µM); in the test with Klebsiella pneumoniae, over 64 µg/mL; with Acinetobacter baumannii, over 64 µg/mL; in the test on Pseudomonas aeruginosa, over 64 µg/mL; in [16] it was over 64 µg/mL. Moreover, the minimal inhibitory concentration (MIC) (in [17]; in test [18]; in the test with Mycobacteroides chelonae) was over 64 µg/mL throughout.
In the case of `Cc1nc(/N=C2\NC(=O)/C(=C/c3cc(C)n(-c4cccc(F)c4)c3C)S2)sc1C`, the MIC was over 64 µg/mL with Escherichia coli; over 64 µg/mL in the test with Staphylococcus aureus [1]; over 64 µg/mL with Klebsiella pneumoniae; over 64 µg/mL in the test on Acinetobacter baumannii; over 64 µg/mL in the test on Pseudomonas aeruginosa; 64 µg/mL (≈ 150 µM) in test [16]. For the same compound, the MIC (in [17]; in test [18]; in the test with Mycobacteroides chelonae) was over 64 µg/mL each time.
In the case of `Cc1cc(/C=C2\S/C(=N/c3nccs3)NC2=O)c(C)n1-c1ccc(Cl)cc1`, the minimum inhibitory concentration (MIC) was over 64 µg/mL with Escherichia coli; 4 µg/mL (≈ 9.64 µM) with Staphylococcus aureus [1]; over 64 µg/mL in the test with Klebsiella pneumoniae; over 64 µg/mL in the test with Acinetobacter baumannii; over 64 µg/mL in the test with Pseudomonas aeruginosa; 8 µg/mL (≈ 19.3 µM) in [16]. The MIC (in test [17]; in test [18]; in the test with Mycobacteroides chelonae) was over 64 µg/mL in each case.
Take `Cc1cc(/C=C2\S/C(=N/c3nccs3)NC2=O)c(C)n1-c1ccccc1Cl`: the MIC is over 64 µg/mL in the test with Escherichia coli; 4 µg/mL (≈ 9.64 µM) in the test with Staphylococcus aureus [1]; over 64 µg/mL in the test with Klebsiella pneumoniae; over 64 µg/mL in the test on Acinetobacter baumannii; over 64 µg/mL in the test with Pseudomonas aeruginosa; 16 µg/mL (≈ 38.6 µM) in [16]. The MIC (in test [17]; in test [18]; in the test with Mycobacteroides chelonae) was over 64 µg/mL throughout.
In the case of `Cc1ccc(-n2c(C)cc(/C=C3\S/C(=N/c4nc(C)c(C)s4)NC3=O)c2C)cc1C`, the MIC in the test with Escherichia coli is over 64 µg/mL; in the test on Staphylococcus aureus [1], over 64 µg/mL; in the test on Klebsiella pneumoniae, over 64 µg/mL; with Acinetobacter baumannii it was over 64 µg/mL; in the test on Pseudomonas aeruginosa, over 64 µg/mL; in test [16], 4 µg/mL (≈ 9.16 µM). In addition, the MIC (in [17]; in [18]; with Mycobacteroides chelonae) was over 64 µg/mL in each case.
